According to patent publication US11306092B2, “Amino indole compounds useful as TLR inhibitors” (BRISTOL-MYERS SQUIBB COMPANY, priority 2017, dated 2022):

Columns and labels:
Assay type in all cases: cell-based
human TLR7 = target: T1, human TLR7 (Homo sapiens, UniProt Q9NYK1); assay: TLR7 inhibition reporter assay (HEK-Blue SEAP reporter); details: HEK-Blue cells overexpressing human TLR7; gardiquimod 7.5 μM; 22 hour incubation
T1 construct: host or cells: HEK-Blue cells
T1 sequence (Q9NYK1 27-1049): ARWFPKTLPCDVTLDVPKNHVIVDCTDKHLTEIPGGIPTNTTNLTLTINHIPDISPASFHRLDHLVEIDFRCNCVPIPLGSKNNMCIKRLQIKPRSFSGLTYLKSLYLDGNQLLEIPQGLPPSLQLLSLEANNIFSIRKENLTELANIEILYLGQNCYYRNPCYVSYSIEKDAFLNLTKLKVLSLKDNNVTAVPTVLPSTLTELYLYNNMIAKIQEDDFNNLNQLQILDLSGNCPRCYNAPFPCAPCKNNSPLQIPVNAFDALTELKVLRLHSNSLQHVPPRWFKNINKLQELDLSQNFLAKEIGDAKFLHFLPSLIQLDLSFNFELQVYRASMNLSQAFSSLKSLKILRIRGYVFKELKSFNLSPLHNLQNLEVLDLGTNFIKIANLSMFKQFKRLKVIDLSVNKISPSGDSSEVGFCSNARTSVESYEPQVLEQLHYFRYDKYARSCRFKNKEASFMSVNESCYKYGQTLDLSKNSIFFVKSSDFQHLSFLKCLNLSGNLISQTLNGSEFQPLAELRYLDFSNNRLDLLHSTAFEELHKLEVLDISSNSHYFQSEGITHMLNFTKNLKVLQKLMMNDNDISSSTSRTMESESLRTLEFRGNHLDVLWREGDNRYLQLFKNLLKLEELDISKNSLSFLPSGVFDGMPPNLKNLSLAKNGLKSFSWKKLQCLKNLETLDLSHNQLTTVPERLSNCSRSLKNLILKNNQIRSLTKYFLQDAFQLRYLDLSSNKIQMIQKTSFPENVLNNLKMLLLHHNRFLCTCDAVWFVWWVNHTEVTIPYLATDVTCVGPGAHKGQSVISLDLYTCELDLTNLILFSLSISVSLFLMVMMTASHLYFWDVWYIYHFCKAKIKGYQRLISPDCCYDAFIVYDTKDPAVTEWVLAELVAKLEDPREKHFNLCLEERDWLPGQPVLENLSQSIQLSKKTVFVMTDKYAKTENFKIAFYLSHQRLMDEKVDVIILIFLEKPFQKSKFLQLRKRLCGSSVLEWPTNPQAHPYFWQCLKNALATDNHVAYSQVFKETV
Summary of the method: (§1)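 Agonists used: gardiquimod 7.5 μM (TLR7), R848 15.9 μM (TLR8), ODN2006 5 nM (TLR9), added after 30 min room-temperature compound pre-treatment (0.05 nM–50 μM) of receptor-overexpressing HEK-Blue cells. SEAP reporter (NF-κB/AP-1 driven) read after 22 h at 37 °C; inhibition scaled between agonist+DMSO and reference-inhibitor wells.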

human TLR9 = target: T2, human TLR9 (Homo sapiens, UniProt Q9NR96); assay: TLR9 inhibition reporter assay (HEK-Blue SEAP reporter); details: HEK-Blue cells overexpressing human TLR9; ODN2006 5 nM; 22 hour incubation
T2 construct: host or cells: HEK-Blue cells
T2 sequence (Q9NR96 26-1032): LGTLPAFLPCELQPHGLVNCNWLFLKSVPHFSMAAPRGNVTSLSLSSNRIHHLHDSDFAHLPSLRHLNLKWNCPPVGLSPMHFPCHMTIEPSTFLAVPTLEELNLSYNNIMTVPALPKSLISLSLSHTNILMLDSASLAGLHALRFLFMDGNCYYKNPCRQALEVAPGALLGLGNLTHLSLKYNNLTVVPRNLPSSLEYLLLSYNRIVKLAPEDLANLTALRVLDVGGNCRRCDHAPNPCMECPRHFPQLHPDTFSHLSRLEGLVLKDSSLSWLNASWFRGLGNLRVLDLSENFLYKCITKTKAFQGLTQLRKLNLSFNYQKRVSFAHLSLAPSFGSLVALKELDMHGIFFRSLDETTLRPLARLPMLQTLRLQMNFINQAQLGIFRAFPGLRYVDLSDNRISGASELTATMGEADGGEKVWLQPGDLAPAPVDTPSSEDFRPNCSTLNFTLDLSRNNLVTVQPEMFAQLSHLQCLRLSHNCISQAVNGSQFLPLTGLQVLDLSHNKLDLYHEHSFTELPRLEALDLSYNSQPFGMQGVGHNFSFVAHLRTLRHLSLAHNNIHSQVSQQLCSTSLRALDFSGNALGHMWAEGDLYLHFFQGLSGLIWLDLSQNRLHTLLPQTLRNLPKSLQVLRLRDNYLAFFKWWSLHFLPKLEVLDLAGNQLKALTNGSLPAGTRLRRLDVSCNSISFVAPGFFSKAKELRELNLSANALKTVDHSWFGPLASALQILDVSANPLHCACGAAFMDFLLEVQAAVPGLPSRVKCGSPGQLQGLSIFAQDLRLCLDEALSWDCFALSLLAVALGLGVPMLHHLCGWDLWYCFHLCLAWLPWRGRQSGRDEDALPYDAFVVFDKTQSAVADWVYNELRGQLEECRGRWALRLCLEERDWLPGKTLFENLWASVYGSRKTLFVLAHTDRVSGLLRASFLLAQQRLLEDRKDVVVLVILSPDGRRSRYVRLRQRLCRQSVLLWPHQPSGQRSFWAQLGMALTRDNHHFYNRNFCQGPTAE
Summary of the method: as §1

human TLR8 = target: T3, human TLR8 (Homo sapiens, UniProt Q9NR97); assay: TLR8 inhibition reporter assay (HEK-Blue SEAP reporter); details: HEK-Blue cells overexpressing human TLR8; R848 15.9 μM; 22 hour incubation
T3 construct: host or cells: HEK-Blue cells
T3 sequence (Q9NR97 27-1041): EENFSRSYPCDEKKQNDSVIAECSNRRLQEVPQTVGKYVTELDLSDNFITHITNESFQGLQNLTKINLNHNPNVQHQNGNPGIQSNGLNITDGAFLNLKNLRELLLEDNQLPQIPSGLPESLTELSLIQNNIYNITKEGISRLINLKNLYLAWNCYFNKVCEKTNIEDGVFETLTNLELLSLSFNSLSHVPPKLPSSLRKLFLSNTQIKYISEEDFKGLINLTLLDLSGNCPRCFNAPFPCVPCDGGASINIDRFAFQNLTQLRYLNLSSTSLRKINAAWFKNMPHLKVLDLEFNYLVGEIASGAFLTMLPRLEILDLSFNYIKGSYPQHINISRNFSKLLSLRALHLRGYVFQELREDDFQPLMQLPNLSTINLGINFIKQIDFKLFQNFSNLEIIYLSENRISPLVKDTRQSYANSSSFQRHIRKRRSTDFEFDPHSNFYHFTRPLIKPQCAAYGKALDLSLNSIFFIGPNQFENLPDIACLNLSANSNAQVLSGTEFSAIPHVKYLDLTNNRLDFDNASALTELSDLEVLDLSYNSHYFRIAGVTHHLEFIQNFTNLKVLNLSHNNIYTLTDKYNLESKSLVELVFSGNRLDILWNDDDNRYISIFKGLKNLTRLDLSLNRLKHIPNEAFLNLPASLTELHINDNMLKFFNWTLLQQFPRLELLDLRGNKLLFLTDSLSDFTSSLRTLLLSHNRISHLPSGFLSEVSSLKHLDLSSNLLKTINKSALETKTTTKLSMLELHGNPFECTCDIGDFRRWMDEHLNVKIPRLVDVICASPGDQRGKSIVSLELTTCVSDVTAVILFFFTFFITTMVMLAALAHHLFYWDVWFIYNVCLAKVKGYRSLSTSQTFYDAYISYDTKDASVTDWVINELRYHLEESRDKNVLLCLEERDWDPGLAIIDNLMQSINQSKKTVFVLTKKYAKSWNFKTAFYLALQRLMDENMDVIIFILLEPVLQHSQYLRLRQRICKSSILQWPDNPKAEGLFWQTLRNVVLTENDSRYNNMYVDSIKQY
Summary of the method: as §1

SMILES | IC50 (human TLR7) [nM] | IC50 (human TLR9) [nM] | IC50 (human TLR8) [nM]
CCNCCOc1ccc(Nc2ccc3[nH]c(-c4ccc(OC)c(OC)c4)c(C(C)C)c3c2)cc1 [Example 105, 2-(3,4-dimethoxyphenyl)-N-(4-(2-(ethylamino)ethoxy)phenyl)-3-isopropyl-1H-indol-5-amine] | 1400 | 2260 | 17
COc1ccc(-c2[nH]c3ccc(Nc4ccc(OCCN5CCCC5)cc4)cc3c2C(C)C)cc1OC [Example 106, 2-(3,4-dimethoxyphenyl)-3-isopropyl-N-(4-(2-(pyrrolidin-1-yl)ethoxy)phenyl)-1H-indol-5-amine] | 1400 | 1430 | 35
COc1ccc(-c2[nH]c3ccc(N4CCC(=O)N(CCN(C)C)CC4)cc3c2C(C)C)cc1OC [Example 107, 1-(2-(3,4-dimethoxyphenyl)-3-isopropyl-1H-indol-5-yl)-4-(2-(dimethylamino)ethyl)-1,4-diazepan-5-one] | 31 | 3460 | 55
COc1ccc(-c2[nH]c3ccc(N4CCC(N(C)C)CC4)cc3c2C(C)C)cc1OC [Example 108, 1-(2-(3,4-dimethoxyphenyl)-3-isopropyl-1H-indol-5-yl)-N,N-dimethylpiperidin-4-amine] | 23 | 2530 | 10
COc1ccc(-c2[nH]c3ccc(N4CCC(N)(CC#N)CC4)cc3c2C(C)C)cc1OC [Example 109, 2-(4-amino-1-(2-(3,4-dimethoxyphenyl)-3-isopropyl-1H-indol-5-yl)piperidin-4-yl)acetonitrile] | 28 | 15100 | 211
COc1ccc(-c2[nH]c3ccc(N4CCC(C(C)(C)O)CC4)cc3c2C(C)C)cc1OC [Example 110, 2-(1-(2-(3,4-dimethoxyphenyl)-3-isopropyl-1H-indol-5-yl)piperidin-4-yl)propan-2-ol] | 194 | 29500 | 328
Cc1c(-c2[nH]c3ccc(N4CCC(N(C)C)CC4)cc3c2C(C)C)cn(C)c(=O)c1Cl [Example 111, 3-chloro-5-(5-(4-(dimethylamino)piperidin-1-yl)-3-isopropyl-H-indol-2-yl)-1,4-dimethyl-114,215-pyridin-2-one] | 2.4 | 3460 | 1.8
CNC1(CC#N)CCN(c2ccc3[nH]c(-c4ccc(OC)c(OC)c4)c(C(C)C)c3c2)CC1 [Example 112, 2-(1-(2-(3,4-dimethoxyphenyl)-3-isopropyl-1H-indol-5-yl)-4-(methylamino)piperidin-4-yl)acetonitrile] | 62 | 6180 | 9.4
COc1ccc(-c2[nH]c3ccc(N4CCCCC4c4ccncc4)cc3c2C(C)C)cc1OC (stereo not drawn) [Example 113, 2-(3,4-dimethoxyphenyl)-3-isopropyl-5-(2-(pyridin-4-yl)piperidin-1-yl)-1H-indole] | 1200 | > 50000 | 1280
COc1ccc(-c2[nH]c3ccc(N4CCC(OCCN(C)C)CC4)cc3c2C(C)C)cc1OC [Example 114, 2-((1-(2-(3,4-dimethoxyphenyl)-3-isopropyl-H-indol-5-yl)piperidin-4-yl)oxy)-N,N-dimethylethan-1-amine] | 460 | 951 | 24
COc1ccc(-c2[nH]c3ccc(N4CCC(CCN5CCCC5)CC4)cc3c2C(C)C)cc1OC [Example 115, 2-(3,4-dimethoxyphenyl)-3-isopropyl-5-(4-(2-(pyrrolidin-1-yl)ethyl)piperidin-1-yl)-1H-indole] | 31 | 621 | 61
COc1ccc(-c2[nH]c3ccc(N4CCC(N5CC(O)CC5=O)CC4)cc3c2C(C)C)cc1OC (stereo not drawn) [Example 116, 1-(1-(2-(3,4-dimethoxyphenyl)-3-isopropyl-1H-indol-5-yl)piperidin-4-yl)-4-hydroxypyrrolidin-2-one] | 936 | 18800 | 94
COc1ccc(-c2[nH]c3ccc(N4CCC(C)(N5CCOCC5)CC4)cc3c2C(C)C)cc1OC [Example 117, 4-(1-(2-(3,4-dimethoxyphenyl)-3-isopropyl-H-indol-5-yl)-4-methylpiperidin-4-yl)morpholine] | 188 | 5050 | 5.3
COc1ccc(-c2[nH]c3ccc(N4CCCC5CN(Cc6ccccc6)CC54)cc3c2C(C)C)cc1OC (stereo not drawn) [Example 118, 6-benzyl-1-(2-(3,4-dimethoxyphenyl)-3-isopropyl-1H-indol-5-yl)octahydro-1H-pyrrolo[3,4-b]pyridine] | 1120 | 1760 | 325
COc1ccc(-c2[nH]c3ccc(N4CCC(C5c6ccccc6CCN5C)CC4)cc3c2C(C)C)cc1OC (stereo not drawn) [Example 119, 1-(1-(2-(3,4-dimethoxyphenyl)-3-isopropyl-1H-indol-5-yl)piperidin-4-yl)-2-methyl-1,2,3,4-tetrahydroisoquinoline] | 1400 | 2300 | 24
